Tests used:
[1] = system: HSV-1 17syn+ ocular infection; test: HSV-1 ocular infection mouse model, H&E histology of eyes (leukocytic infiltration, peripheral neovascularization); format: in vivo, Balb/c mice; settings: day 25 PI
Protocol: Histological score (0-1) was calculated based on leukocytic infiltration and peripheral neovascularization of hematoxylin & eosin (H&E) stained slides of mouse eyes on day 25 PI.
All experimental procedures were performed in accordance with the ARVO Resolution for the Use of Animals in Ophthalmic and Vision Research and were approved by the Xavier University Animal Care and Use Committee. Female 20 g Balb/c mice were obtained from Charles River Laboratories. Mice were allowed to equilibrate to their surroundings for 2 weeks and then were anesthetized by intramuscular administration of xylazine (6.6 mg/kg of body weight) and ketamine (100 mg/kg of body weight). The corneas were mildly scarified in a 2×2 cross-hatch pattern and each cornea was inoculated with 5×10^5 PFU of strain HSV 17syn+. […] DNA was collected by swabbing the eyes with filter paper, and the eyes were examined with a slit-lamp on PI days 2, 4, 7, 9, 11, 14, 18 and 25. Average neovascularization/eye was scored using the formula A=(C×0.4×L×π)/2 where C=clock hours of neovascularization; 30° arc is 1 (360° circle with a total of 12); L is the length of the longest neovessel, and A is the area of neovascularization. Students scored (by eye) the animals on the days indicated in a masked fashion using the slit-lamp, and images representative of each group were taken. Clinical scores based on epiphora, inflammation and discharge were calculated where 0=no manifestations, +1=slight manifestations, +2=moderate manifestations, and +3=severe manifestations. Mice were sacrificed with CO2 on day 25 post-infection, and eyes were harvested, sectioned, stained with hematoxylin and eosin (H&E) for histological analysis based on peripheral neovascularization and leukocytic infiltration where 0=clear eyes, 0.5=either peripheral neovascularization or leukocytic infiltration, and 1=both peripheral neovascularization and leukocytic infiltration. Ex ovo chick embryo chorioallantoic membrane collagen angiogenesis assays were performed using methods as previously described (Deryugina E I and Quigley J P. Chapter 2. Chick embryo chorioallantoic membrane models to quantify angiogenesis induced by inflammatory and tumor cells or purified effector molecules. Methods Enzymol. 444:21-41. 2008). Briefly, fertilized embryos (Charles River Laboratories, Charleston, S.C.) were incubated at 37.5° C. for 3 days, removed from their shell using a Dremel tool and placed into a covered weighing boat for 7 further days of incubation. […] Four collagen onplants were added per egg on at least 3 separate eggs. After three additional days of incubation, images were taken of each plug using a mini-Vid camera (LW Scientific; Lawrenceville, Ga.) and quantified in a masked fashion based on the percentage of grids that were positive for newly formed blood vessels.
To confirm the results in FIGS. 1A and 1B, sections of one cornea from each mouse was sectioned, stained with H&E and analyzed for leukocytic infiltrate and peripheral neovascularization of the cornea.

HUVEC [2] = test: Endothelial cell transwell migration assay; format: cell-based, human; settings: 16 hours
Protocol: Migration/invasion assays were performed using 24-well, 8-μm pore size BD Biocoat Matrigel migration chambers according to the manufacturer's instructions (BD Biosciences, San Jose, Calif.). […] Cells were allowed to migrate for 16 hours at 37° C. Following incubation, cotton swabs were used to remove the cells on the top surface of the membrane, and cells on the bottom side of the membrane were fixed with 4% formaldehyde for 30 min, washed 3-5 times with PBS, and then stained with 10 μM Calcein AM (migration) or 10 μM Celltracker green-labeled (invasion). Migrating or invading cells from three repeats in two independent experiments were then counted using an inverted microscope. Data are expressed as mean percent migration and mean percent invading cells compared with untreated cells±SEM.
Cell migration induced by chemoattractant angiogenic factors such as bFGF and VEGF is an important step in the angiogenic process. […] Data presented as percent fluorescence normalized to control untreated cells (100% migration).

HUVEC [3] = test: In vitro tubule formation assay; format: cell-based, human; settings: 25 ng/mL bFGF and VEGF
Protocol: The number of circular tubular structures formed by HUVEC under conditions of serum starvation followed by treatment with 25 ng/mL bFGF and VEGF and with 0-200 nM FP were quantitatively analyzed. Manual counting at low power fields was used to quantitate tubular structures and percentage of inhibition was expressed using VEGF control wells as 100%.
Growth factor-reduced Geltrex (Life Technologies, Grand Island, N.Y.) was thawed overnight on ice. Each well of 96-well plated was coated at […] with 50 μL Geltrex and incubated at 37° C. for 30 min. […] After 12-16 hours, tubule formation was assessed with an inverted photomicroscope and the images were photographed using Olympus U-RLF-T microscope. Manual counting at low power fields was used to quantitate tubular structures and percentage of inhibition was expressed using VEGF control wells as 100%. Results represent one triplicate repeat of three independent experiments with similar results.
Following migration from the vessel of origin and invasion through the ECM, ECs form capillary tubules. […] The number of circular nodes surrounded by tubular structures was quantitatively analyzed in a masked fashion.

[4] = system: chick embryo chorioallantoic membrane; test: Ex ovo chick chorioallantoic membrane (CAM) collagen onplant angiogenesis assay; format: in vivo; settings: 100 nM flavopiridol in bFGF/VEGF-containing collagen plugs; 3 days
Protocol: After 3 days, CAMs were photographed, and angiogenesis was quantified by counting the number of grids positive for new blood vessel growth in a blinded manner. Results are expressed as number of grids positive for blood vessels and as percent positive grids.
Female 20 g Balb/c mice were obtained from Charles River Laboratories. Mice were allowed to equilibrate to their surroundings for 2 weeks and then were anesthetized by intramuscular administration of xylazine (6.6 mg/kg of body weight) and ketamine (100 mg/kg of body weight). The corneas were mildly scarified in a 2×2 cross-hatch pattern and each cornea was inoculated with 5×10^5 PFU of strain HSV 17syn+. […] DNA was collected by swabbing the eyes with filter paper, and the eyes were examined with a slit-lamp on PI days 2, 4, 7, 9, 11, 14, 18 and 25. Average neovascularization/eye was scored using the formula A=(C×0.4×L×π)/2 where C=clock hours of neovascularization; 30° arc is 1 (360° circle with a total of 12); L is the length of the longest neovessel, and A is the area of neovascularization. Students scored (by eye) the animals on the days indicated in a masked fashion using the slit-lamp, and images representative of each group were taken. Clinical scores based on epiphora, inflammation and discharge were calculated where 0=no manifestations, +1=slight manifestations, +2=moderate manifestations, and +3=severe manifestations. […]

HSV-1 = test: In vitro viral inhibition (plaque) assay in CV-1 cells; format: cell-based
Protocol: Numbers of plaque-forming units (PFU) were determined in a standard plaque assay procedure using CV-1 cells.
The HSV-1 strain employed was 17 syn+. Before inoculation, numbers of plaque-forming units (PFU) were determined in a standard plaque assay procedure using CV-1 cells. Pooled primary human umbilical vein endothelial cells (HUVEC) were obtained from Lonza (Basel, Switzerland) and were cultured in Medium 199 (Life Technologies, Carlsbad, Calif.) supplemented with 20% heat-inactivated FBS, penicillin G (100 U/ml), streptomycin ([…]), 2 mM L-glutamine and 1:100 endothelial cell growth supplement (ECGS, BD Biosciences, Bedford, Mass.) on tissue culture plates coated with 0.2% gelatin up to passage 6. Cells were sub-passaged or harvested when they reached ˜80% confluence. For periods of serum-deprivation, HUVEC were incubated for 4 or 16 hours in serum-starvation medium (SSM) containing Medium 199 without phenol red or ECGS but containing 0.5% FBS unless otherwise indicated. In vitro viral inhibition assays with CV-1 cells were performed as previously described (Gong E Y. Methods for screening and profiling inhibitors of herpes simplex viruses. Methods Mol Biol. 1030:303-313. 2013).

[5] = Ocular safety and tolerability of the formulation, rabbit eyes; format: in vivo; settings: dose and frequency of the HSV-1 corneal neovascularization study
Protocol: This was assessed with the dose and frequency that was used in the chemotherapeutic study of HSV-1 corneal neovascularization. FIG. 1A presents the results of slit-lamp examination (SLE) scores of the corneas of the four treatment groups beginning on post-inoculation day 2 and continuing to 25 days following infection.

global transcription = settings: low-dose FP; Lu et al. Mol Cancer Ther (2004); cited from earlier work

For CN1CC[C@H](c2c(O)cc(O)c3c(=O)cc(-c4ccccc4Cl)oc23)[C@H](O)C1 [flavopiridol], the “mouse eyes exhibiting corneal neovascularization” value ([1]; H&E sections) was 0%, the “mouse eyes exhibiting leukocytic infiltration” value ([1]; H&E sections) was 0% and the “histological score (scale 0-1) for leukocytic infiltrate and peripheral neovascularization” value ([1]; H&E stained corneal sections) was 0.125±0.125. For the same compound, the “percent migration normalized to untreated control cells (100%)” value (HUVEC [2]; 100 nM flavopiridol) was 74.99%±2.35, the “percent migration normalized to untreated control cells (100%)” value (HUVEC [2]; 150 nM flavopiridol) was 25.08±1.79% and the “tubular structures, VEGF control wells as 100%” value (shortened to “tubular structures … as 100%”) (HUVEC [3]; 50 nM flavopiridol, not statistically different from control) was 114.7±7.17. The “tubular structures … as 100%” value (HUVEC [3]; 100 nM flavopiridol, not statistically different from control) was 97.67±5.36, the “tubular structures … as 100%” value (HUVEC [3]; 150 nM flavopiridol, significantly reduced) was 55.33±9.70 and the “angiogenesis: grids positive for newly formed blood vessels” value [4] was 14.33±2.10. For the same compound, the “concentration at which HSV-1 replication was significantly inhibited” value (HSV-1) was 250 nM, the IC50 (HSV-1; Human alphaherpesvirus 1, read-out: average IC50 of HSV-1 replication) was 100 nM and the “safety and tolerability of the formulation in the eye” value [5] was “safe and well-tolerated”. For the same compound, the “block of global transcription” value (global transcription) was “does not block global transcription”.

Source: US20180200279A1, “INHIBITION OF HSV-1-ASSOCIATED CORNEAL NEOVASCULARIZATION USING INHIBITORS OF CYCLIN-DEPENDENT KINASE 9” (XAVIER UNIVERSITY OF LOUISIANA, priority 2014, published 2018)
